Data from patent US20240166652A1, “MODULATORS OF THE INTEGRATED STRESS PATHWAY” (Calico Life Sciences LLC, priority 2017, published 2024).

Tested on: ATF4 luciferase reporter in HEK293T cells
Test: ATF4-Luc assay (ATF4 luciferase reporter, tunicamycin-treated HEK293T cells)
Type: cell-based, human
Settings: Homo sapiens, HEK-293T; HEK293T cells carrying the ATF4 luciferase reporter, 1 μg/mL tunicamycin, 7 hours

`O=C(COc1nc2c(s1)CCCC2)NC12CCC(NC(=O)COc3ccc(Cl)c(F)c3)(CC1)[C@@H](O)C2` [Compound 578, 2-(4-chloro-3-fluorophenoxy)-N-[(2S)-2-hydroxy-4-{2-[(4,5,6,7-tetrahydro-1,3-benzothiazol-2-yl)oxy]acetamido}bicyclo[2.2.2]octan-1-yl]acetamide] was tested. Which EC50 did it give?
The EC50 was > 2000 nM.

For `Cc1ncnc(C)c1OCC(=O)NC12CCC(NC(=O)COc3ccc(Cl)c(F)c3)(CC1)C[C@@H]2O` [Compound 493, 2-(4-chloro-3-fluorophenoxy)-N-[(3S)-4-{2-[(4,6-dimethylpyrimidin-5-yl)oxy]acetamido}-3-hydroxybicyclo[2.2.2]octan-1-yl]acetamide], which EC50 is on record?
The EC50 was > 2000 nM.

Which EC50 does the source give for `O=C(COc1cccc(Cl)c1)NC12CC(NC(=O)COc3ccc(Cl)c(Cl)c3)(C1)C2` [Compound 171, 2-(3-chlorophenoxy)-N-{3-[2-(3,4-dichlorophenoxy)acetamido]-bicyclo[1.1.1]pentan-1-yl}acetamide] here?
The EC50 was < 10 nM.

With `O=C(COc1ccc(Cl)c(F)c1)N[C@@H]1C[C@@H]2C[C@H]1C[C@H]2NC(=O)COc1ccc(Cl)c(F)c1` (racemic) [Compound 628, rac-N,N′-[(1R,2S,4R,5S)-bicyclo[2.2.1]heptane-2,5-diyl]bis[2-(4-chloro-3-fluorophenoxy)acetamide]] as the compound, how does the EC50 read?
Its EC50 is < 10 nM.

How did the EC50 turn out when `O=C(COc1ccc(Cl)c(F)c1)NC12CCC(NC(=O)COc3ccc(OC(F)(F)F)c(F)c3)(CC1)[C@@H](O)C2` [Compound 750, 2-(4-chloro-3-fluorophenoxy)-N-[(3S)-4-{2-[3-fluoro-4-(trifluoromethoxy)phenoxy]acetamido}-3-hydroxybicyclo[2.2.2]octan-1-yl]acetamide] was run?
The EC50 was < 10 nM.

How did the EC50 turn out when `O=C(COCc1cccc(Cl)c1)NC12CC(NC(=O)COc3ccc(Cl)c(F)c3)(C1)C2` [Compound 131, 2-(4-chloro-3-fluorophenoxy)-N-(3-{2-[(3-chlorophenyl)methoxy]acetamido}-bicyclo[1.1.1]pentan-1-yl)acetamide] was run?
Its EC50 is 10 to 50 nM.

`O=C(COc1ccc(F)c(F)c1)NC12CCC(NC(=O)COc3cccc(C(F)(F)F)c3)(CC1)[C@@H](O)C2` [Compound 809, 2-(3,4-difluorophenoxy)-N-[(3S)-3-hydroxy-4-{2-[3-(trifluoromethyl)phenoxy]acetamido}bicyclo[2.2.2]octan-1-yl]acetamide] was tested. Which EC50 did it give?
Its EC50 is < 10 nM.

How did the EC50 turn out when `O=C(COc1ccc(Cl)cc1)NC12CC(NC(=O)COc3ccc(Cl)c(Cl)c3)(C1)C2` [Compound 117, 2-(4-chlorophenoxy)-N-{3-[2-(3,4-dichlorophenoxy)acetamido]bicyclo-[1.1.1]pentan-1-yl}acetamide] was run?
The EC50 was < 10 nM.

With `O=C(COc1ccc(OC(F)(F)F)c(F)c1)NC12CCC(NC(=O)COc3ccc(Cl)cc3)(CC1)[C@@H](O)C2` [Compound 759, 2-(4-chlorophenoxy)-N-[(2S)-4-{2-[3-fluoro-4-(trifluoromethoxy)phenoxy]acetamido}-2-hydroxybicyclo[2.2.2]octan-1-yl]acetamide] as the compound, how does the EC50 read?
The EC50 was < 10 nM.

How did the EC50 turn out when `Cc1cc(CC(=O)NC23CCC(NC(=O)COc4ccc(Cl)c(F)c4)(CC2)C(O)C3)on1` (centres unmarked) [Compound 423, 2-(4-chloro-3-fluorophenoxy)-N-{2-hydroxy-4-[2-(3-methyl-1,2-oxazol-5-yl)acetamido]bicyclo[2.2.2]octan-1-yl}acetamide] was run?
The EC50 was > 2000 nM.

How did the EC50 turn out when `CCc1ccc(OCC(=O)NC23CCC(NC(=O)COc4ccc(Cl)c(F)c4)(CC2)[C@@H](O)C3)cc1` [Compound 782, 2-(4-chloro-3-fluorophenoxy)-N-{(2S)-4-[2-(4-ethylphenoxy)acetamido]-2-hydroxybicyclo[2.2.2]octan-1-yl}acetamide] was run?
The EC50 was < 10 nM.

How did the EC50 turn out when `O=C(COc1ccc(Cl)c(F)c1)NC12CC(NC(=O)COc3ccnn(CC(F)(F)F)c3=O)(C1)C2` [Compound 309, 2-(4-chloro-3-fluorophenoxy)-N-[3-(2-{[3-oxo-2-(2,2,2-trifluoroethyl)-2,3-dihydropyridazin-4-yl]oxy}acetamido)bicyclo[1.1.1]pentan-1-yl]acetamide] was run?
The EC50 was 50 to 250 nM.

For `O=C(COc1ccc(Cl)c(F)c1)NC12CCC(NC(=O)COc3ccnn(CC(F)(F)F)c3=O)(CC1)C(=O)C2` [Compound 316, 2-(4-chloro-3-fluorophenoxy)-N-[3-oxo-4-(2-{[3-oxo-2-(2,2,2-trifluoroethyl)-2,3-dihydropyridazin-4-yl]oxy}acetamido)bicyclo[2.2.2]octan-1-yl]acetamide], which EC50 is on record?
The EC50 was 500 to 2000 nM.

With `O=C(/C=C/c1ccc(OC(F)(F)F)cn1)NC12CCC(NC(=O)COc3ccc(Cl)c(F)c3)(C1)C2` [Compound 425, (2E)-N-{4-[2-(4-chloro-3-fluorophenoxy)acetamido]bicyclo[2.1.1]hexan-1-yl}-3-[5-(trifluoromethoxy)pyridin-2-yl]prop-2-enamide] as the compound, how does the EC50 read?
Its EC50 is 500 to 2000 nM.

`O=C(COc1ccc(Cl)c(F)c1)NC12CC(NC(=O)COc3cnc4ccoc4c3)(C1)C2` [Compound 255, 2-(4-chloro-3-fluorophenoxy)-N-(3-{2-[(furo[3,2-b]pyridin-6-yl)oxy]acetamido}bicyclo[1.1.1]pentan-1-yl)acetamide] was tested. Which EC50 did it give?
Its EC50 is 50 to 250 nM.

With `O=C(COc1ccc(F)c(Cl)c1)NC12CC(NC(=O)COc3ccc4c(c3)OC(F)(F)O4)(C1)C2` [Compound 591, 2-(3-chloro-4-fluorophenoxy)-N-(3-{2-[(2,2-difluoro-2H-1,3-benzodioxol-5-yl)oxy]acetamido}bicyclo[1.1.1]pentan-1-yl)acetamide] as the compound, how does the EC50 read?
The EC50 was < 10 nM.

Which EC50 does the source give for `O=C(COc1ccc(Cl)c(C(=O)O)c1)NC12CCC(NC(=O)COc3ccc(Cl)c(C(=O)O)c3)(CC1)[C@@H](O)C2` [Compound 593, 3,3′-{[(2S)-2-hydroxybicyclo[2.2.2]octane-1,4-diyl]bis[azanediyl(2-oxoethane-2,1-diyl)oxy]}bis(6-chlorobenzoic acid)] here?
The EC50 was > 2000 nM.

How did the EC50 turn out when `O=C(COc1ccc(F)c(F)c1)NC12CC(NC(=O)COc3ccc(F)c(Cl)c3)(C1)C2` [Compound 590, 2-(3-chloro-4-fluorophenoxy)-N-{3-[2-(3,4-difluorophenoxy)acetamido]bicyclo[1.1.1]pentan-1-yl}acetamide] was run?
Its EC50 is < 10 nM.

`O=C(COc1ccc(Cl)c(Cl)c1)NC12CCCC(NC(=O)COc3ccc(Cl)c(Cl)c3)(C1)C2` [Compound 209] was tested. Which EC50 did it give?
The EC50 was > 2000 nM.

With `O=C(COc1ccc(Cl)cc1)NC12CC(NC(=O)COc3ccc(Cl)c(F)c3)(C1)C2` [Compound 368, 2-(4-chloro-3-fluorophenoxy)-N-{3-[2-(4-chlorophenoxy)acetamido]bicyclo[1.1.1]pentan-1-yl}acetamide] as the compound, how does the EC50 read?
The EC50 was < 10 nM.

`O=C(COc1ccc(Cl)cc1)NC12CCC(NC(=O)COc3ccc(Cl)cc3)(CC1)[C@@H](O)C2` [Compound 540, N,N′-[(2S)-2-hydroxybicyclo[2.2.2]octane-1,4-diyl]bis[2-(4-chlorophenoxy)acetamide]] was tested. Which EC50 did it give?
Its EC50 is < 10 nM.

`O=C(COc1ccc(Cl)c(F)c1)NC12CCC(NC(=O)COc3ccc(Cl)c(F)c3)(CC1)C(O)C2` (centres unmarked) [Compound 273, N,N′-(2-hydroxybicyclo[2.2.2]octane-1,4-diyl)bis[2-(4-chloro-3-fluorophenoxy)acetamide]] was tested. Which EC50 did it give?
The EC50 was < 10 nM.

With `O=C(COc1ccc(Cl)c(F)c1)NC12CCC(NC(=O)COc3ccc(C(F)(F)F)nc3)(CC1)C(F)C2` (centres unmarked) [Compound 366, 2-(4-chloro-3-fluorophenoxy)-N-[3-fluoro-4-(2-{[6-(trifluoromethyl)pyridin-3-yl]oxy}acetamido)bicyclo[2.2.2]octan-1-yl]acetamide] as the compound, how does the EC50 read?
Its EC50 is 10 to 50 nM.
